“And” between values parts separate entries of the source, which are not always exact repeats. Identical values can stand only once.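 48-hour exposure; five concentrations; linearly interpolated endpoints. GI50 marks 50% less growth. The concentration for full growth arrest is given as TGI.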
Tests used:
Experiment in all cases: NCI anticancer screen, dose series, 48 h
A549 NSCLC = system: A549 NSCLC
HCT-15 colon = system: HCT-15 colon
HS 578T breast = system: HS 578T breast
M14 melanoma = system: M14 melanoma
MCF7 breast = system: MCF7 breast
MDA-MB-435 = system: MDA-MB-435
NCI-H522 lung = system: NCI-H522 lung
OVCAR-4 ovarian = system: OVCAR-4 ovarian
TK-10 renal = system: TK-10 renal
UO-31 renal = system: UO-31 renal

Compound | GI50 (A549 NSCLC) | TGI (A549 NSCLC) | GI50 (HCT-15 colon) | TGI (HCT-15 colon) | GI50 (HS 578T breast) [µM] | TGI (HS 578T breast) | GI50 (M14 melanoma) [µM] | TGI (M14 melanoma) [µM] | GI50 (MCF7 breast) | TGI (MCF7 breast) | GI50 (MDA-MB-435) [µM] | TGI (MDA-MB-435) [µM] | GI50 (NCI-H522 lung) [µM] | TGI (NCI-H522 lung) [µM] | GI50 (OVCAR-4 ovarian) [µM] | TGI (OVCAR-4 ovarian) [µM] | GI50 (TK-10 renal) [µM] | TGI (TK-10 renal) | GI50 (UO-31 renal) [µM] | TGI (UO-31 renal)
COc1c(O)cc2oc3cc(O)c(CC=C(C)C)c(O)c3c(=O)c2c1C/C=C(\C)CCC=C(C)C | 5.1 µM | 9.64 µM | 5.69 µM | 11.7 µM | 7.11 | 16.7 µM | 6.17 | 12.6 | 6.15 µM | 13.7 µM | 5.77 | 10.9 | 5.92 | 10.8 | 5.41 | 9.84 | 8.15 | 15.5 µM | 4.62 | 8.97 µM
COc1cc(-c2cc(C(=O)Nc3nc4ccccc4s3)nc3cc(-c4ccccc4)nn23)cc(OC)c1OC | – | – | > 100 µM | > 100 µM | 4.7 | > 100 µM | 2.39 | > 100 | 22.4 µM | > 100 µM | 2.61 | 40.3 | 1.96 | 7.82 | > 100 | > 100 | 11.9 | 32.7 µM | > 100 | > 100 µM
CS(=O)(=O)c1ccc(Oc2nccc(-c3c(-c4ccc(F)cc4)ncn3C3CCNCC3)n2)cc1 | > 25 µM | > 25 µM | > 25 µM | > 25 µM | > 25 | > 25 µM | > 25 | > 25 | > 25 µM | > 25 µM | > 25 | > 25 | > 25 | > 25 | > 25 | > 25 | > 25 | > 25 µM | > 25 | > 25 µM
CCN(Cc1ccc(F)cc1F)c1ccc(CO)c(Cl)c1 | 1.85 µM | 21.2 µM | 11.2 µM | 30.5 µM | 18.9 | > 72.8 µM | 20.3 | > 55.6 | 0.238 µM | 12.6 µM | 21 | > 59.6 | 14.8 | 37.6 | 0.218 | 1.65 | 0.0434 | 0.245 µM | 4.52 | 43.8 µM
COc1ccc(/C=C/C(=O)/C=C(/C=C/c2ccc(OC)c(OC)c2)OB(F)F)cc1OC | 2.24 µM | 7.62 µM | 0.286 µM | 1.12 µM | 1.31 | 8.15 µM | 0.519 | 3.55 | 0.4 µM | > 100 µM | 0.522 | 3.89 | 0.291 | 1.45 | 1.86 | > 100 | 1.25 | 9.48 µM | 0.652 | 3.72 µM
O=C1C(Cl)=C(Oc2ccccc2)C(=O)c2ccccc21 | 21 µM | 51.8 µM | 12.1 µM | 31.5 µM | 2.62 | 13 µM | 8.55 | 22 | 7.3 µM | 25.2 µM | 8.06 | 24.1 | 1.51 | 2.96 | 2.58 | 7.22 | 1.87 | 3.41 µM | 1.23 | 3.23 µM
COc1ccc2c(CN3CCC(CO)CC3)cc3cc4c(cc3c2c1)OCO4 | – | – | 0.17 µM | 3.49 µM | 0.5 | 12.4 µM | 0.296 | 1.26 | 0.211 µM | 2.55 µM | 0.275 | 1.41 | 0.135 | 0.363 | 0.438 | 11.4 | 0.407 | 8.65 µM | 0.252 | 19 µM
COc1ccc(-n2c(-c3ccc(NC(=O)CCCl)cc3)nnc2-c2cc(OC)c(OC)c(OC)c2)cc1 | 3.89 µM | 11.2 µM | 3.68 µM | > 14.3 µM | 3.89 | 12.6 µM | 4.27 | > 14.3 | 3.15 µM | > 14.3 µM | 4.4 | > 14.3 | 4.14 | > 14.3 | 4.1 | > 14.3 | 4.97 | 11.9 µM | 1.94 | 4.37 µM
C=C1C(=O)OC2C1C(OC(=O)/C(C)=C/C)CC(O)(CCl)C1C(OC(C)=O)C=C(C)C21O (stereo unspecified) | – | > 67.3 µM | – | 21.7 µM | – | > 100 µM | – | 25.7 | – | 19.8 µM | – | > 51.2 | – | 5.94 | – | 33.5 | – | 27.3 µM | – | 35 µM
COC(=O)c1ccc(-c2nc3cc(F)c(F)cc3nc2C#N)cc1 | 10.8 µM | 25.6 µM | 1.59 µM | 6.47 µM | 1.57 | 4.79 µM | 8.28 | 18.9 | 8.86 µM | 23.6 µM | 8.21 | 16.4 | 6.36 | 35.4 | 4.71 | 32.3 | 17.4 | 42.2 µM | 11.2 | 33.5 µM
Nc1nc(SCC(=O)O)[nH]c(=O)c1N | – | > 100 µM | – | > 100 µM | – | > 100 µM | – | > 100 | – | > 100 µM | – | > 100 | – | > 100 | – | > 100 | – | > 100 µM | – | > 100 µM
O=C1CC2(CCCc3sccc32)C(=O)N1 (stereo unspecified) | – | > 100 µM | – | > 100 µM | – | > 100 µM | – | > 100 | – | > 100 µM | – | > 100 | – | > 100 | – | > 100 | – | > 100 µM | – | > 100 µM
CCOC(=O)c1sc2ncn(Cc3cccc(Cl)c3)c(=O)c2c1C | 16.4 µM | 30 µM | 14.1 µM | 27 µM | 17.5 | 31.3 µM | 15.4 | 28.7 | 15.8 µM | 29.2 µM | 13.9 | 26.9 | 10.9 | 23.3 | 16.2 | 29.7 | – | – | 13.5 | 26.4 µM
Cc1c2ncccc2c(C)c2c1[nH]c1ccc(O)cc12 | 4.89 µM and 1.93 µM | 15.4 µM and 13 µM | 6.16 µM and 6.53 µM | 17.6 µM and 40 µM | 7.84 | 21.2 µM and 84.8 µM | 8.67 | 17.2 | 5.95 µM and 8.58 µM | 15.2 µM and 50 µM | – | 20.9 | – | 19.6 | – | 16 | 17.4 | 25.9 µM and 61.6 µM | 8.04 | 16.7 µM and 28.4 µM

Source: PubChem BioAssay (NCI)
